This is an account of results in patent US10709727B2, “Antiviral drugs” (priority 2015, dated 2020).

The data set concerns influenza virus (WSN strain). It is filed as cell-based.

Take “DOCK11 #2: lentivirus-expressed shRNA against DOCK11 gene, SEQ ID NO: 2, used in Examples 3, 4, 6, 8, 12 (guide CCGGGTACTAGACACCATATCATTTCTCGAGAAATGATATGGTGTCTAGTACTTTTTG)”: the “localization of nucleoproteins of influenza virus in the nucleus of the host cell” value was “suppressed”.
